Where “and” joins values, the source holds several entries; their conditions need not be identical. Equal values may be shown once. Entries after “also recorded” stand apart in the source; their conditions may differ. Read-outs that look alike come from different tables or passages of the source.
Columns and labels:
[1] = Isomerization in binding assay medium; type: physicochemical; details: for proportion of isomer in the mixture: 100 h time-point, regardless which isomer was used at the beginning; for isomerization kinetics in binding assay medium: room temperature
[2] = Stability / isomerization in organic solvents; details: CH2Cl2, THF, EtOAc, DMSO
[3] = target: recombinant human His-tagged MDM2 protein (residues 1–118) (Homo sapiens, UniProt Q00987); test: FP-based competitive protein binding assay
[4] = Interconversion of isomers in MeCN-H2O; type: physicochemical; details: for isomerization in CH3CN-H2O: over a period of up to four days
[5] = tested on: SJSA-1 osteosarcoma cell line; test: cells; details: Homo sapiens, read-out: IC50 cell growth inhibition
[6] = tested on: SJSA-1 osteosarcoma tumor xenograft; type: in vivo; details: for tumor growth inhibition as compared to vehicle control: end of treatment (day 26); for weight loss or other signs of toxicity: 5a 200 mg/kg, 5b 100 and 200 mg/kg daily oral 14 days
[7] = Isomerization in vivo in plasma and tumor tissue; details: plasma and tumor tissue of SCID mice
[8] = Tumor tissue concentration in tumor bearing SCID mice; details: for Tumor Concentration of isomer: single oral 100 mg/kg, 24 h
[9] = tested on: p53 activation in SJSA-1 tumor tissue; test: Pharmacodynamic study, Western blotting of tumor tissue; type: in vivo, mouse; details: single oral dose 200 mg/kg; for p53 activation in tumor tissue (accumulation of p53, MDM2 and p21): Western blot
[10] = Plasma concentration in tumor bearing SCID mice; details: for Plasma Concentration of isomer: single oral 100 mg/kg, 24 h
[11] = Isomerization in cell culture medium; type: physicochemical; details: 2 days, starting from 5a or 5b
MDM2 = details: ref 6b; cited from earlier work
[12] = tested on: animal models of human cancer; details: ref 6b; cited from earlier work
[13] = binding assay medium, after 12 days
[14] = FP competitive binding to MDM2, incubation 15 min
[15] = calculated from IC50, FP competitive binding to MDM2, incubation 15 min

CN(C)C(=O)[C@@H]1N[C@H](CC(C)(C)C)[C@]2(C(=O)Nc3cc(Cl)ccc32)[C@H]1c1cccc(Cl)c1 [1a, (2′R,3S,4′R,5′R)-6-chloro-4′-(3-chlorophenyl)-N,N-dimethyl-2′-neopentyl-2-oxospiro[indoline-3,3′-pyrrolidine]-5′-carboxamide]
remaining of starting isomer [1, 13]: 17.6%
converted into 1b ([1]; binding assay medium, after 12 days, started with 1a): 53%
stability in aprotic solvents [2]: relatively stable

CN(C)C(=O)[C@@H]1N[C@@H](CC(C)(C)C)[C@@]2(C(=O)Nc3cc(Cl)ccc32)[C@H]1c1cccc(Cl)c1 [1b, (2′S,3R,4′R,5′R)-6-chloro-4′-(3-chlorophenyl)-N,N-dimethyl-2′-neopentyl-2-oxospiro[indoline-3,3′-pyrrolidine]-5′-carboxamide]
remaining of starting isomer [1, 13]: 93.9%

CNC(=O)[C@@H]1N[C@H](CC(C)(C)C)[C@]2(C(=O)Nc3cc(Cl)ccc32)[C@H]1c1cccc(Cl)c1 [2a, (2′R,3S,4′R,5′R)-6-chloro-4′-(3-chlorophenyl)-N-methyl-2′-neopentyl-2-oxospiro[indoline-3,3′-pyrrolidine]-5′-carboxamide]
IC50 [3]: 565 ± 57 nM
Ki [3]: 76.2 ± 7.7 nM

CNC(=O)[C@@H]1N[C@@H](CC(C)(C)C)[C@@]2(C(=O)Nc3cc(Cl)ccc32)[C@H]1c1cccc(Cl)c1 [2b, (2′S,3R,4′R,5′R)-6-chloro-4′-(3-chlorophenyl)-N-methyl-2′-neopentyl-2-oxospiro[indoline-3,3′-pyrrolidine]-5′-carboxamide]
IC50 [3]: 30.9 ± 2.9 nM
Ki [3]: 3.1 ± 0.3 nM

CNC(=O)[C@@H]1N[C@H](CC(C)(C)C)[C@]2(C(=O)Nc3cc(Cl)ccc32)[C@H]1c1cccc(Cl)c1F [4a, (2′R,3S,4′S,5′R)-6-chloro-4′-(3-chloro-2-fluorophenyl)-Nmethyl-2′-neopentyl-2-oxospiro[indoline-3,3′-pyrrolidine]-5′-carboxamide]
IC50 [3, 14]: 387 ± 39 nM
Ki [3, 15]: 51.8 ± 4.2 nM

CNC(=O)[C@@H]1N[C@@H](CC(C)(C)C)[C@@]2(C(=O)Nc3cc(Cl)ccc32)[C@H]1c1cccc(Cl)c1F [4b, (2′S,3R,4′S,5′R)-6-chloro-4′-(3-chloro-2-fluorophenyl)-Nmethyl-2′-neopentyl-2-oxospiro[indoline-3,3′-pyrrolidine]-5′-carboxamide]
IC50 [3, 14]: 25.9 ± 1.5 nM
Ki [3, 15]: 2.4 ± 0.2 nM
times more potent than the respective isomer a (binding to MDM2) ([3]; cis-cis isomer b versus trans-cis isomer a): > 15 times

CC(C)(C)C[C@H]1N[C@@H](C(=O)NCC[C@H](O)CO)[C@H](c2cccc(Cl)c2F)[C@@]12C(=O)Nc1cc(Cl)ccc12 [5a, (2′R,3S,4′S,5′R)-6-chloro-4′-(3-chloro-2-fluorophenyl)-N-((S)-3,4-dihydroxybutyl)-2′-neopentyl-2-oxospiro[indoline-3,3′-pyrrolidine]-5′-carboxamide]
isomerization in CH3CN-H2O [4]: gradually converted into a mixture of four isomers
IC50 ([5]; SJSA-1, 24 h): 30300 ± 6230 nM
IC50 ([5]; SJSA-1, 48 h): 950 ± 160 nM
IC50 ([5]; SJSA-1, 72 h): 180 ± 20 nM
IC50 ([5]; SJSA-1, 96 h): 150 ± 30 nM
tumor growth inhibition as compared to vehicle control ([6]; 200 mg/kg daily oral gavage 14 days): 41%
weight loss or other signs of toxicity [6]: no significant weight loss
proportion of isomer in the mixture ([1]; binding assay medium): ~40%
isomerization in vivo [7]: isomerizes very fast
Tumor Concentration of isomer ([8]; dosed with 5a): BLQ
Tumor Concentration of isomer ([8]; dosed with 5b): BLQ
p53 activation in tumor tissue (accumulation of p53, MDM2 and p21) [9]: effectively activated p53
Plasma Concentration of isomer ([10]; dosed with 5a): BLQ
Plasma Concentration of isomer ([10]; dosed with 5b): BLQ ^b

CC(C)(C)C[C@@H]1N[C@@H](C(=O)NCC[C@H](O)CO)[C@H](c2cccc(Cl)c2F)[C@]12C(=O)Nc1cc(Cl)ccc12 [5b, (2′S,3R,4′S,5′R)-6-chloro-4′-(3-chloro-2-fluorophenyl)-N-((S)-3,4-dihydroxybutyl)-2′-neopentyl-2-oxospiro[indoline-3,3′-pyrrolidine]-5′-carboxamide]
proportion of 5b of all 4 isomers [11]: approximately 50%
converted into a mixture of three other isomers ([4]; CH3CN-H2O, after 12 days): 4%
IC50 ([5]; SJSA-1, 24 h): 18100 ± 2400 nM
IC50 ([5]; SJSA-1, 48 h): 630 ± 40 nM
IC50 ([5]; SJSA-1, 72 h): 180 ± 10 nM
tumor growth inhibition as compared to vehicle control ([6]; 100 mg/kg daily oral gavage 14 days): 67%
weight loss or other signs of toxicity [6]: no significant weight loss
proportion of isomer in the mixture ([1]; binding assay medium): approximately 50%
isomerization kinetics in binding assay medium [1]: slow isomerization kinetic and was the most stable
isomerization in vivo [7]: isomerizes slowly
Tumor Concentration of isomer ([8]; dosed with 5a): BLQ
Tumor Concentration of isomer ([8]; dosed with 5b): BLQ
tumor tissue concentration of 5b in mice dosed with 5b versus mice dosed with 5a ([8]; mouse, in vivo): 11 fold and 16 fold
apoptosis induction in tumor tissue (PARP cleavage, caspase-3 activation) ([9]; 24 h): stronger apoptosis induction than 5a
p53 activation in tumor tissue (accumulation of p53, MDM2 and p21) ([9]; 200 mg/kg): effectively activated p53; also recorded: clearly more potent than 5a
Plasma Concentration of isomer ([10]; dosed with 5a): BLQ
plasma concentration of 5b in mice dosed with 5b versus mice dosed with 5a ([10]; mouse, in vivo): 7 fold and 12 fold

CC(C)(C)C[C@@H]1N[C@@H](C(=O)NCC[C@H](O)CO)[C@H](c2cccc(Cl)c2F)[C@@]12C(=O)Nc1cc(Cl)ccc12 [5c, (2′S,3S,4′S,5′R)-6-chloro-4′-(3-chloro-2-fluorophenyl)-N-((S)-3,4-dihydroxybutyl)-2′-neopentyl-2-oxospiro[indoline-3,3′-pyrrolidine]-5′-carboxamide]
isomerization in CH3CN-H2O [4]: gradually converted into a mixture of four isomers
isomerized into 5b ([1]; binding assay medium, within 30 min): approximately 20%
isomerization kinetics in binding assay medium [1]: very fast isomerization kinetics

CC(C)(C)C[C@H]1N[C@@H](C(=O)NCC[C@H](O)CO)[C@H](c2cccc(Cl)c2F)[C@]12C(=O)Nc1cc(Cl)ccc12 [5d, (2′R,3R,4′S,5′R)-6-chloro-4′-(3-chloro-2-fluorophenyl)-N-((S)-3,4-dihydroxybutyl)-2′-neopentyl-2-oxospiro[indoline-3,3′-pyrrolidine]-5′-carboxamide]
isomerization in CH3CN-H2O [4]: gradually converted into a mixture of four isomers

CCOC(=O)[C@@H]1N[C@H](CC(C)(C)C)[C@]2(C(=O)Nc3cc(Cl)ccc32)[C@H]1c1cccc(Cl)c1F [7a, (2′R,3S,4′S,5′R)-ethyl 6-chloro-4′-(3-chloro-2-fluorophenyl)-2′-neopentyl-2-oxospiro[indoline-3,3′-pyrrolidine]-5′-carboxylate]
IC50 [3]: 19500 ± 4000 nM
Ki [3]: 2700 ± 500 nM

CCOC(=O)[C@@H]1N[C@@H](CC(C)(C)C)[C@@]2(C(=O)Nc3cc(Cl)ccc32)[C@H]1c1cccc(Cl)c1F [7b, (2′S,3R,4′S,5′R)-ethyl 6-chloro-4′-(3-chloro-2-fluorophenyl)-2′-neopentyl-2-oxospiro[indoline-3,3′-pyrrolidine]-5′-carboxylate]
IC50 [3]: 721 ± 79 nM
Ki [3]: 97.5 ± 10.7 nM

CC(C)(C)C[C@H]1N[C@@H](C(=O)O)[C@H](c2cccc(Cl)c2F)[C@@]12C(=O)Nc1cc(Cl)ccc12 [8a, (2′R,3S,4′S,5′R)-6-chloro-4′-(3-chloro-2-fluorophenyl)-2′-neopentyl-2-oxospiro[indoline-3,3′-pyrrolidine]-5′-carboxylic acid]
IC50 [3]: 498 ± 44 nM
Ki [3]: 67 ± 5.9 nM

CC(C)(C)C[C@@H]1N[C@@H](C(=O)O)[C@H](c2cccc(Cl)c2F)[C@]12C(=O)Nc1cc(Cl)ccc12 [8b, (2′S,3R,4′S,5′R)-6-chloro-4′-(3-chloro-2-fluorophenyl)-2′-neopentyl-2-oxospiro[indoline-3,3′-pyrrolidine]-5′-carboxylic acid]
IC50 [3]: 55.1 ± 5.2 nM
Ki [3]: 6.4 ± 0.6 nM

CC(C)(C)C[C@@H]1N[C@@H](C(N)=O)[C@H](c2cccc(Cl)c2F)[C@]12C(=O)Nc1cc(Cl)ccc12 [9b, (2′S,3R,4′S,5′R)-6-chloro-4′-(3-chloro-2-fluorophenyl)-2′-neopentyl-2-oxospiro[indoline-3,3′-pyrrolidine]-5′-carboxamide]
IC50 [3]: 22.5 ± 2.2 nM
Ki [3]: 1.9 ± 0.2 nM

CN(C)C(=O)[C@@H]1N[C@@H](CC(C)(C)C)[C@@]2(C(=O)Nc3cc(Cl)c(F)cc32)[C@H]1c1cccc(Cl)c1 [10b, (2′S,3R,4′R,5′R)-6-chloro-4′-(3-chlorophenyl)-5-fluoro-N,Ndimethyl-2′-neopentyl-2-oxospiro[indoline-3,3′-pyrrolidine]-5′-carboxamide]
IC50 [3, 14]: 835 ± 121 nM
Ki [3, 15]: 113 ± 16 nM

CNC(=O)[C@@H]1N[C@@H](CC(C)(C)C)[C@@]2(C(=O)Nc3cc(Cl)c(F)cc32)[C@H]1c1cccc(Cl)c1 [11b, (2′S,3R,4′R,5′R)-6-chloro-4′-(3-chlorophenyl)-5-fluoro-Nmethyl-2′-neopentyl-2-oxospiro[indoline-3,3′-pyrrolidine]-5′-carboxamide]
IC50 [3, 14]: 112 ± 12 nM
Ki [3, 15]: 14.2 ± 1.1 nM

CC(C)(C)C[C@H]1N[C@@H](C(=O)NCC[C@H](O)CO)[C@H](c2cccc(Cl)c2)[C@@]12C(=O)Nc1cc(Cl)c(F)cc12.Cl [MI-219]
binding affinity to MDM2 (MDM2): low nanomolar affinity
tumor growth in animal models of human cancer [12]: strongly inhibits tumor growth
